We go through 2 compounds from patent US11617741B1, “Method for inhibiting growth of bacteria” (priority 2021, dated 2023).

For one data set, the system named is E. coli. The data set can be described thus: Minimum inhibitory and bactericidal concentration determination, Gram-negative control. It counts as cell-based, Escherichia coli. Here is the method: (§1) The 96-well plate was organized as follows. Media (100 μl) were added to all wells.
Another data set relates to glyQS T-box. The data set can be described thus: qRT-PCR transcriptional read-through of T-box-regulated glyQS (confirmation of inhibition of T-box mechanism). It is filed as cell-based, Bacillus subtilis 1A5. The settings on record: confirmation of inhibition of T-box mechanism from qRT-PCR assay. The source says:
Sample preparation of RNA and cDNA.
A general note: Quantitative PCR measures a nucleic acid by following its amplification.

The subject of data set [1] is J774.16 murine macrophages. Description: Trypan blue cell viability counting. It is filed as cell-based. To be noted: 48 hours. Here is the method:
J774.16 cells were grown in J7 medium from a fresh passage in a 1:4 dilution of 70 to 80% confluent cells. The cells were allowed to adhere in 6-well plates overnight. The medium was replaced, and drugs were added to desired concentrations in a total volume of 5 ml/well. A media control, untreated control, a killing control of Triton X-100, and a vehicle control were always included. After 48 hours treatment, medium was removed, and fresh media and Trypan blue were added 1:1 in a final volume of 400 μl. Cells, 100 to 200, from two areas of each well were counted and the data averaged and normalized against untreated cells. The vehicle control served as the 0.0-μg/ml value. At least three biological replicates were included for each drug at each concentration.

In data set [2] the test system is B. subtilis 168. Description: Minimum inhibitory concentration determination. It is filed as cell-based, Bacillus subtilis. The method, then:
as §1

Data set [3] concerns S. aureus N315 (MRSA isolate). Description: Minimum inhibitory and bactericidal concentration determination. It is filed as cell-based, Staphylococcus aureus. The method, then: as §1
The subject of the next data set is S. aureus N315 (MRSA). The data set can be described thus: Antibiotic resistance frequency (fluctuation assay). It is filed as cell-based, Staphylococcus aureus. The settings on record: MRSA. The source says: Gentamicin on BHI agar was used as a control.
For data set [4], the system named is A549 human lung epithelial cells. Description: alamarBlue cell redox activity. It is filed as cell-based. To be noted: 128 μg/ml, 48 hours. Here is the method:
(§2) alamarBlue was purchased (Thermo Scientific) and used according to the manufacturer's directions. In short, 50,000 cells of either A549 or J774.16 were added into a 96-well plate in 200 μl and left to adhere overnight. As a control, we used a 96-well plate with the desired drugs at 2× the final concentrations in 160 μl without adding cells. The cells' medium was removed, and 100 μl fresh medium was added, followed by 100 μl of 2× drug from the corresponding wells in the drug plate. Media were added to the drug plate to reduce the concentrations to 1×, and the cells were incubated at 37° C. for 48 or 72 hours. alamarBlue was added at 10 μl per 100 μl, and the fluorescence of both plates at 590 nm was read after overnight incubation. The drug plate fluorescence was subtracted from the cells' plate respective values, and the data were normalized to untreated cells' reading. All plates included a vehicle control used as the 0-μg/ml value for each drug tested. All concentrations were tested in triplicate and included at least three biological replicates. A media control, untreated control, a killing control, and a vehicle control were always included. The cytotoxicity of synergistic or additive MICs of PKZ18 analogs and a common antibiotic (co-MIC) on eukaryotic cells was tested on A549 cells as above, but the two plates were set up identically to the checkerboard assay so that the final concentrations tested corresponded to those tested against MRSA.
For orientation: The colour change of resazurin is a common sign of viable cells or microbes.

The subject of data set [5] is J774.16 murine macrophages. The data set can be described thus: alamarBlue cell redox activity. It counts as cell-based. The settings on record: for cellular redox activity: 64 μg/ml. The method, then: as §2
In data set [6] the test system is B. subtilis 168. Here is the method:
Gentamicin on BHI agar was used as a control. In short, MRSA and B. subtilis were grown overnight in BHI, and 3-hour day cultures at the optical density of A620 of 0.1 were started for both organisms. The optical density after 3 hours of growth was measured; cultures were then pelleted and resuspended to give 10^11 CFU/ml by optical density. CFU of 10^11 per OD were plated in total; 100 μl of the cells were then plated on BHI agar containing either 128 μg/m1PKZ18 or 64 μg/m1PKZ18-22. Serial dilutions of the cells were plated on plain BHI agar in order to calculate the CFU/ml, which was calculated as the number of colonies found on the plates divided by the total number of bacteria plated. CFU means colony forming units, a measure of live bacteria.

In data set [7] the target is Bacillus subtilis tyrS T-box. The data set can be described thus: Binding to chemically synthesized truncated stem I construct. To be noted: truncated stem I construct of tyrS T-box.
In a further data set the test system is S. aureus 4220. Here is the method: MICs were determined essentially as previously described (Frohlich KM, Weintraub SF, Bell JT, Todd GC, Väre VYP, Schneider R, Kloos ZA, Tabe ES, Cantara WA, Stark CJ, Onwuanaibe UJ, Duffy BC, Basanta-Sanchez M, Kitchen DB, McDonough KA, Agris PF. 2019. Discovery of small-molecule antibiotics against a unique tRNA-mediated regulation of transcription in Gram-positive bacteria. ChemMedChem 14:758-769.). In short, cultures were grown overnight in the appropriate media, diluted to A620 of 0.1, grown for 3 hours, and again diluted to A620 of 0.1. Cultures were then diluted 10-fold, of which 5 μl were added to each well of the 96-well plate used for the experiment except the media control wells. The initial well inoculum was 7.5×10^5 bacteria for S. aureus and 2.5×10^5 bacteria for B. subtilis (bacterial numbers were measured by OD). The 96-well plate was organized as follows. Media (100 μl) were added to all wells. Stock solutions (100 μi) containing 2 times the highest concentration of antibiotics to be tested were loaded to column 1, with two technical repeats per drug. […] The following controls were included: vehicle control (DMSO, chloroform, ethanol, etc.), cells in plain media, and media control (no cells). The initial optical density (A620) of the 96-well plate was determined, the plate was grown for 16 to 24 hours, and at that time, the final optical densities (A620) were read. The initial reading was subtracted from the final reading, and the technical replicates were averaged. MICs of PKZ18 and analogs were compared to clinically used antibiotics such as gentamicin.

The target in data set [8] is Bacillus subtilis glyQS T-box. Description: Binding to chemically synthesized truncated stem I construct. The settings on record: truncated stem I construct of glyQS T-box.
Data set [9] concerns B. subtilis glyQS Stem I specifier loop. Description: UV-monitored thermodynamic stability measurements of stem I constructs. It counts as binding, Bacillus subtilis. The method, then: Thermodynamic parameters were derived from four UV-monitored destabilizations and four renaturations of chemically synthesized wild-type and mutant truncated B. subtilis glyQS Stem I specifier loops in the absence and presence of PKZ18 (10 mM Na2HPO4 and 10 mM KH2PO4; final pH 6.8). The absorbance was collected at 260 nm and was performed using a Varian Cary 3 UV-visible spectrophotometer equipped with a Peltier temperature control accessory. The temperature was increased at a rate of 1° C. per minute from 5 to 85° C. Absorbance data at 260 nm were collected as a function of temperature at a rate of four data points per minute. All experiments were performed simultaneously with a control cell containing buffer only. The error calculated is the error of the mean.

The test system of data set [10] is S. aureus (ATCC 29213) biofilm. Description: MBEC-HTP biofilm model, single agents, CFU recovery. To be noted: range of concentrations up to 1.024 mg/mL.
Protocol: An overnight culture of S. aureus (ATCC 29213) was diluted to 1×10^7 cells/mL in tryptic soy broth (TSB) supplemented with 10% human plasma (Innovative Research, Novi, Mich. USA) and added to the wells of an MBEC™-HTP Assay Biofilm Innoculator (Innovotech, Edmonton, AB, Canada). The plate was incubated overnight at 37° C. and shaken at 125 rpm. […] Control wells were without a COMPOUND OF Formula I. The treatment plate was incubated for 24 h at 37° C. after which the lid was removed, rinsed with PBS, and placed in a new 96-well plate containing TSB. The biofilm was removed from the assay lid into the recovery plate wells by sonication, a new plate cover was added, and the viability of the biofilm was determined after 24 h of incubation at 37° C. by reading the OD at 625 nm. Three independent experiments were conducted. Concentrations of interest were followed up with colony forming unit (CFU) recovery and scanning electron microscopy analysis. After conclusion of the MBEC assay, the minimum bactericidal concentration (MBC) was determined. […]
After rinsing in PBS, designated pegs were snapped off the lid using sterile tweezers and placed in 1.5 mL Eppendorf tubes containing 200 μL PBS. […] The plates were then imaged and colonies counted on a ColonyDoc-It™ Imaging station (UVP, Analytik Jena, Beverly, Mass., USA).
Data set [11] relates to planktonic growth of Staphylococcus.
Protocol: An overnight culture of S. aureus (ATCC 29213) was diluted to 1×10^7 cells/mL in tryptic soy broth (TSB) supplemented with 10% human plasma (Innovative Research, Novi, Mich. USA) and added to the wells of an MBEC™-HTP Assay Biofilm Innoculator (Innovotech, Edmonton, AB, Canada). The plate was incubated overnight at 37° C. and shaken at 125 rpm. […] Control wells were without a COMPOUND OF Formula I. The treatment plate was incubated for 24 h at 37° C. after which the lid was removed, rinsed with PBS, and placed in a new 96-well plate containing TSB. The biofilm was removed from the assay lid into the recovery plate wells by sonication, a new plate cover was added, and the viability of the biofilm was determined after 24 h of incubation at 37° C. by reading the OD at 625 nm. Three independent experiments were conducted. Concentrations of interest were followed up with colony forming unit (CFU) recovery and scanning electron microscopy analysis. After conclusion of the MBEC assay, the minimum bactericidal concentration (MBC) was determined. The MBC is the lowest concentration of an antibacterial agent required to kill a particular bacterium. The peg lid from the MBEC assay was removed from the challenge plate and 20 μL of medium from each well of the challenge plate was removed and added to a new sterile 96-well plate filled with 180 μL TSB. […]
Data set [12] relates to PKZRSA1 (PKZ18-22-resistant MRSA). Description: MICs against PKZ18-22-resistant mutant compared to WT MRSA. It is filed as cell-based, Staphylococcus aureus. The method, then: as §1
Where [13] appears, read: similarly sized construct with gly codon but lacking the specifier loop.
The mark [14] stands for this setting: wild-type truncated glyQS stem I with the specifier loop.

A word on the cell viability: it is a per cent measure of how many cells are alive, often set against a control. Low values mean more harm to the cells, high ones less harm to the cells.

Values after ≈ are worked out from the molar mass of the structure shown. Marks after values point to notes of the source that are not given here.

In turn, `Cc1sc(NC(=O)C2C3CCC(C3)C2C(=O)O)nc1-c1ccc(C(C)C)cc1` (centres unmarked) [PKZ18-00] displayed an MIC E. coli in the data set with E. coli of more than 256 µg/mL. The MBC E. coli with E. coli (value in parentheses) is more than 256 µg/mL. The T-Box targeting entry with glyQS T-box (Table 1) and in the data set on glyQS T-box (Table 2) was “Yes” throughout. In [1] (64 μg/ml), the cell viability was 76%. Further, the macrophage viability in data set [1] (128 μg/ml) was 25%. The results for the “fold lower MIC in minimal versus rich media” value in the data set with B. subtilis 168 [2] (B. subtilis 168) and in the data set with S. aureus 4220 (S. aureus 4220) were 8 fold and 4 fold, respectively. In the data set with B. subtilis 168 [2] (minimal media), the “MIC against B. subtilis 168 in minimal media” value stood at 8 µg/mL (≈ 20.1 µM). Besides, the “MIC against B. subtilis 168 in rich media” value against B. subtilis 168 [2] (rich media) was 64 µg/mL (≈ 161 µM). Moreover, in data set [3] (Table 2), the “MIC S. aureus N315” value is 64 µg/mL (≈ 161 µM). For the same compound, the “MBC S. aureus N315” value in data set [3] (Table 2, value in parentheses) was more than 256 µg/mL. Besides, the resistant colonies entry in the data set with S. aureus N315 (MRSA) was “No PKZ18-resistant colonies were found”; with B. subtilis 168 [6], “did not generate resistant colonies”. Also, the redox activity entry in [4] is listed as “near-total reduction”; in data set [5] (128 μg/ml, 48 hours), “near-total reduction”. Besides, the cellular redox activity entry is “increased” in data set [5] (48 hours) and “decreased” in data set [5] (72 hours). Besides, the dissociation constant result in data set [7] and in [8] was “low micromolar” in each case. Besides, in the data set on S. aureus 4220 (S. aureus 4220, minimal media), the “MIC against S. aureus in minimal media” value was 16^a μg/ml. The “MIC against S. aureus in rich media” value in the data set with S. aureus 4220 (S. aureus 4220, rich media) is 64^a μg/ml. Also, the “change in melting temperature ΔTm” value in data set [9] (setting [13]) was −0.33; in [9] (setting [14]) it was −18.52 °C. Also, the “free energy ΔΔG” value is listed as “+0.22” in data set [9] (setting [13]) and “+3.41 kcal mol^−1” in data set [9] (setting [14]).
As to `CN[C@H](CC(C)C)C(=O)N[C@H]1C(=O)N[C@@H](CC(N)=O)C(=O)N[C@H]2C(=O)N[C@H]3C(=O)N[C@H](C(=O)N[C@H](C(=O)O)c4cc(O)cc(O)c4-c4cc3ccc4O)[C@H](O)c3ccc(c(Cl)c3)Oc3cc2cc(c3O[C@@H]2O[C@H](CO)[C@@H](O)[C@H](O)[C@H]2O[C@H]2C[C@](C)(N)[C@H](O)[C@H](C)O2)Oc2ccc(cc2Cl)[C@H]1O` [vancomycin], the “MBEC efficacy at highest concentration” value in data set [10] is “not effective”. Also, the “planktonic growth over a range of concentrations” value in data set [11] was “no growth”. Further, the “fold increase in MIC against PKZRSA1 compared to WT” value in data set [12] is given as 2 fold.
